Non-standard residues stand in square brackets, D forms with d. Residues, ends and D or L forms follow the SMILES beside them. Nle = CCCC[C@H](N)C(=O)O
Key:
Assay type in all cases: cell-based, mouse
[1] = tested on: NIH3T3 cells overexpressing TK; assay: MTT cell viability, TK overexpressing cells vs parental line; conditions: TK high-expressing cells / parental cell line, 3 to 4 days
Method in brief: (§1)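 Stable NIH3T3 transfectants (cDNA in pRc-CMV-type vector, G-418-selected, high expressers picked by Western blot) and parental cells were seeded at 1×10^5 cells/ml into twofold serial drug dilutions and grown 3–4 days. MTT formazan was read at 574/655 nm, and log ratios of IC40 values were derived.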

[2] = tested on: NIH3T3 cells overexpressing Regucalcin; assay: MTT cell viability, Regucalcin overexpressing cells vs parental line; conditions: Regucalcin high-expressing cells / parental cell line, 3 to 4 days
Method in brief: as §1

[3] = tested on: NIH3T3 cells overexpressing p53(wt); assay: MTT cell viability, p53(wt) overexpressing cells vs parental line; conditions: p53(wt) high-expressing cells / parental cell line, 3 to 4 days
Method in brief: (§2)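 Sensitivity is expressed as the logarithm of the ratio of IC40 values between gene-overexpressing and parental NIH3T3 cells. IC40 comes from an MTT assay after 3–4 days of drug exposure, with absorbance read at 574 nm against 655 nm. Untreated wells served as 100% and cell-free wells as 0% controls.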

[4] = tested on: NIH3T3 cells overexpressing cystatin alpha; assay: MTT cell viability, cystatin alpha overexpressing cells vs parental line; conditions: cystatin alpha high-expressing cells / parental cell line, 3 to 4 days
Method in brief: as §1

[5] = tested on: NIH3T3 cells overexpressing HSP9O; assay: MTT cell viability, HSP9O overexpressing cells vs parental line; conditions: HSP9O high-expressing cells / parental cell line, 3 to 4 days
Method in brief: as §1

[6] = tested on: NIH3T3 cells overexpressing Ha-ras; assay: MTT cell viability, drug sensitivity of Ha-ras overexpressing cells vs parental line; conditions: Ha-ras high-expressing cells / parental cell line, 3 to 4 days
Method in brief: as §2

[7] = tested on: NIH3T3 cells overexpressing PDGF-R-Del; assay: MTT cell viability, PDGF-R-Del overexpressing cells vs parental line; conditions: PDGF-R-Del high-expressing cells / parental cell line, 3 to 4 days
Method in brief: as §1

[8] = tested on: NIH3T3 cells overexpressing C/EBPa; assay: MTT cell viability, C/EBPa overexpressing cells vs parental line; conditions: C/EBPa high-expressing cells / parental cell line, 3 to 4 days
Method in brief: as §2

[9] = tested on: NIH3T3 cells overexpressing p16/INK4A; assay: MTT cell viability, p16/INK4A overexpressing cells vs parental line; conditions: p16/INK4A high-expressing cells / parental cell line, 3 to 4 days
Method in brief: as §1

[10] = tested on: NIH3T3 cells overexpressing N-ras; assay: MTT cell viability, N-ras overexpressing cells vs parental line; conditions: N-ras high-expressing cells / parental cell line, 3 to 4 days
Method in brief: as §1

[11] = tested on: NIH3T3 cells overexpressing Ki-ras; assay: MTT cell viability, Ki-ras overexpressing cells vs parental line; conditions: Ki-ras high-expressing cells / parental cell line, 3 to 4 days
Method in brief: as §1

[12] = tested on: NIH3T3 cells overexpressing C/EBPb; assay: MTT cell viability, C/EBPb overexpressing cells vs parental line; conditions: C/EBPb high-expressing cells / parental cell line, 3 to 4 days
Method in brief: as §2

[13] = tested on: NIH3T3 cells overexpressing caspase-3; assay: MTT cell viability, caspase-3 overexpressing cells vs parental line; conditions: caspase-3 high-expressing cells / parental cell line, 3 to 4 days
Method in brief: as §2

[14] = tested on: NIH3T3 cells overexpressing caspase-2; assay: MTT cell viability, caspase-2 overexpressing cells vs parental line; conditions: caspase-2 high-expressing cells / parental cell line, 3 to 4 days
Method in brief: as §1

[15] = tested on: NIH3T3 cells overexpressing calpastatin; assay: MTT cell viability, calpastatin overexpressing cells vs parental line; conditions: calpastatin high-expressing cells / parental cell line, 3 to 4 days
Method in brief: as §1

[16] = tested on: NIH3T3 cells overexpressing p33/ING1; assay: MTT cell viability, p33/ING1 overexpressing cells vs parental line; conditions: p33/ING1 high-expressing cells / parental cell line, 3 to 4 days
Method in brief: as §1

[17] = tested on: NIH3T3 cells overexpressing coup; assay: MTT cell viability, coup overexpressing cells vs parental line; conditions: coup high-expressing cells / parental cell line, 3 to 4 days
Method in brief: as §1

[18] = tested on: NIH3T3 cells overexpressing JNK-DN; assay: MTT cell viability, JNK-DN overexpressing cells vs parental line; conditions: JNK-DN high-expressing cells / parental cell line, 3 to 4 days
Method in brief: as §1

[19] = tested on: NIH3T3 cells overexpressing Bax; assay: MTT cell viability, Bax overexpressing cells vs parental line; conditions: 3 to 4 days
Method in brief: as §2

[20] = tested on: NIH3T3 cells overexpressing STAT1; assay: MTT cell viability, STAT1 overexpressing cells vs parental line; conditions: STAT1 high-expressing cells / parental cell line, 3 to 4 days
Method in brief: as §2

[21] = Bax (first of two Bax lines) high-expressing cells / parental cell line
[22] = Bax (second of two Bax lines) high-expressing cells / parental cell line

SMILES | logarithmic value of ratio of IC40 values [1] | logarithmic value of ratio of IC40 values [2] | logarithmic value of ratio of IC40 values [3] | logarithmic value of ratio of IC40 values [4] | logarithmic value of ratio of IC40 values [5] | logarithmic value of ratio of IC40 values [6] | logarithmic value of ratio of IC40 values [7] | logarithmic value of ratio of IC40 values [8] | logarithmic value of ratio of IC40 values [9] | logarithmic value of ratio of IC40 values [10] | logarithmic value of ratio of IC40 values [11] | logarithmic value of ratio of IC40 values [12] | logarithmic value of ratio of IC40 values [13] | logarithmic value of ratio of IC40 values [14] | logarithmic value of ratio of IC40 values [15] | logarithmic value of ratio of IC40 values [16] | logarithmic value of ratio of IC40 values [17] | logarithmic value of ratio of IC40 values [18] | logarithmic value of ratio of IC40 values [19, 21] | logarithmic value of ratio of IC40 values [19, 22] | also measured
COC(=O)[C@@]1(O)C[C@H]2O[C@]1(C)n1c3ccccc3c3c4c(c5c6ccccc6n2c5c31)C(=O)NC4 [K252a] | 0.23 | −0.34 | 0.05 | −0.10 | 0.56 | 0.65 | 0.10 | −0.48 | −0.22 | −0.16 | 0.15 | 0.25 | 0.15 | 0.37 | 0.1 | 0.28 | 0.00 | −0.28 | −0.11 | 0.60 | logarithmic value of ratio of IC40 values [20]: 0.15
COc1ccc2c(c1)CC[C@@H]1[C@@H]2CC[C@]2(C)[C@@H](NCCCCCCN3C(=O)C=CC3=O)CC[C@@H]12 [U73122] | 0.00 | −0.66 | 0.11 | 0.04 | 0.18 | −0.19 | 0.00 | 0.00 | 0.28 | −0.54 | −0.60 | 0.10 | 0.53 | −0.02 | −0.313 | 0.28 | 0.00 | −0.07 | 0.00 | 0.00 | logarithmic value of ratio of IC40 values [20]: 0.18
CCCC[C@@H](C=O)NC(=O)[C@H](CC(C)C)NC(=O)[C@H](CC(C)C)NC(C)=O [ALLN] (Ac-Leu-Leu-[Nle]-aldehyde) | 0.00 | 0.00 | 0.18 | 0.07 | 0.16 | 0.15 | 0.10 | 0.00 | 0.09 | 0.17 | 0.11 | 0.31 | −0.09 | −0.04 | 0.10 | 0.08 | 0.06 | −0.24 | −0.10 | 0.11 | logarithmic value of ratio of IC40 values [20]: 0.17
CO[C@H]1[C@@H](OC)C[C@H](C)[C@@H](OC)C2=CC(=O)C=C(NC(=O)/C(C)=C/C=C\[C@H](OC)[C@@H](OC(N)=O)/C(C)=C/[C@@H]1C)C2=O [HMA, herbimycin A] | 0.00 | −0.20 | −0.22 | −0.12 | 0.40 | −0.35 | 0.00 | 0.00 | 0.41 | 0.43 | −0.14 | 0.45 | 0.08 | 0.10 | −0.14 | 0.38 | 0.42 | −0.14 | −0.05 | 0.15 | logarithmic value of ratio of IC40 values [20]: −0.05

— US20040086901A1, “Database for analyzing gene function and method of analyzing gene function by dspa” (priority 2000, published 2004)
